The numbers were not newly measured in patent US11504416B2, “Formulation with cannabinoids” (PAW POWER, INC., priority 2018, dated 2022), which cites them from elsewhere.

Bounds are passed on as bounds.

The conditions of series [1]: intra-articular injection, high molecular weight (>5×10^6 Da).

For the compound `N[C@H]1C(O)O[C@H](CO)[C@@H](O)[C@@H]1O` (stereo partly shown) [Glucosamine], under “administered orally”, the gastrointestinal absorption result is on record as “readily absorbed”. For the setting “after oral ingestion”, the “time to peak levels in the bloodstream” value is at most 8 h. Further, where the note is “oral ingestion”, the “tissue distribution of ingested glucosamine” value is “localizes to cartilage and joint tissues”.
Take hyaluronic acid: the “function in subjects with osteoarthritis or rheumatoid arthritis” value in series [1] is recorded as “improves function”.
